Measurements taken from BindingDB's records for doi:10.1021/jm00095a029 (Warner-Lambert, 1992).
Non-standard residues stand in square brackets, D forms with d. Residues, ends and D or L forms follow the SMILES beside them.

Tested on: Endothelin A receptor
Assay: ChEBML_63192

Compound `CC[C@H](C)[C@H](NC(=O)[C@H](CC(=O)O)NC(=O)[C@H](CC(C)C)NC(=O)[C@@H](Cc1ccc(O)cc1)NC(C)=O)C(=O)N[C@H](C(=O)N[C@@H](Cc1c[nH]c2ccccc12)C(=O)O)[C@@H](C)CC` (Ac-[dY]LDIIW-OH) has an IC50 of 400 nM.
